Experimental findings from ChEMBL document CHEMBL5226375, “Synthesis and Comprehensive in Vivo Activity Profiling of Olean-12-en-28-ol, 3β-Pentacosanoate in Experimental Autoimmune Encephalomyelitis: A Natural Remyelinating and Anti-Inflammatory Agent” (J Nat Prod, 2023) are described below.

Activity calls are given as the source filed them. The rule behind the calls is not given here.

Data set [1] is described as follows: Stability of the compound in THF/phosphate buffer at pH 6.5 incubated for 2 hrs under stirring conditions by 1H-NMR analysis. The format is physicochemical. Conditions: pH 6.5, 2 h.
For data set [2], the system named is Mus musculus. Nature of the data set: Anti-inflammatory activity against MOG35-55-induced experimental autoimmune encephalomyelitis C57BL/6 mouse model assessed as fold change in CCL5 gene expression in brain at 300 mg/kg/day, ig for 14 days starting from 12th day of immunization by RT-qPCR analysis relative to control. The format is functional. The following applies: time 14 day. On the technique in general: In qPCR the cycle at which signal appears reflects the starting amount.

Data set [3] has as its system Mus musculus. Nature of the data set: Anti-inflammatory activity against MOG35-55-induced experimental autoimmune encephalomyelitis C57BL/6 mouse model assessed as reduction in TNF-alpha protein expression in brain at 300 to 600 mg/kg/day, ig for 14 days starting from 12th day of immunization by western blot analysis. The data set is classed as functional, organism-based. Conditions: dose 300-600 mg/kg/day, time 14.0 day. (In general: A western blot detects proteins with antibodies after separation by electrophoresis.)

Data set [4] concerns Mus musculus. Nature of the data set: Anti-inflammatory activity against MOG35-55-induced experimental autoimmune encephalomyelitis C57BL/6 mouse model assessed as reduction in serum […] cytokine level by measuring reduction in IL-17 level at 600 mg/kg/day, ig for 14 days starting from 12th day of immunization by ELISA. The format is functional, organism-based. Conditions: time 14.0 day. On the technique in general: ELISA stands for enzyme-linked immunosorbent assay.

In data set [5] the test system is Mus musculus. The data set can be described thus: Anti-inflammatory activity against MOG35-55-induced experimental autoimmune encephalomyelitis C57BL/6 mouse model assessed as reduction in APP protein expression in brain at 300 to 600 mg/kg/day, ig for 14 days starting from 12th day of immunization by western blot analysis relative to control. The format is functional. The following applies: dose 300-600 mg/kg/day, time 14 day.

For data set [6], the system named is Mus musculus. The data set can be described thus: Anti-inflammatory activity against MOG35-55-induced experimental autoimmune encephalomyelitis C57BL/6 mouse model assessed as fold change in NFKB gene expression in brain at 600 mg/kg/day, ig for 14 days starting from 12th day of immunization by RT-qPCR analysis relative to control. The format is functional. The following applies: time 14 day.

Data set [7] deals with Mus musculus. The data set can be described thus: Anti-inflammatory activity against MOG35-55-induced experimental autoimmune encephalomyelitis C57BL/6 mouse model assessed as reduction in EAE symptoms by measuring reduction in cumulative scores at 0.3 mg/kg/day, ig for 14 days starting from 12th day of immunization and measured from day 12 to 38 post-immunization. Conditions: time 1-26 day. The format is functional, organism-based.

Data set [8] relates to Mus musculus. Nature of the data set: Anti-inflammatory activity against MOG35-55-induced experimental autoimmune encephalomyelitis C57BL/6 mouse model assessed as fold change in STAT3 gene expression in brain at 0.3 mg/kg/day, ig for 14 days starting from 12th day of immunization by RT-qPCR analysis relative to control. The data set is classed as functional. Conditions: time 14 day.

Data set [9] relates to Mus musculus. The data set can be described thus: Anti-inflammatory activity against MOG35-55-induced experimental autoimmune encephalomyelitis C57BL/6 mouse model assessed as fold change in CCL5 gene expression in brain at 0.15 mg/kg/day, ig for 14 days starting from 12th day of immunization by RT-qPCR analysis relative to control. The format is functional. The following applies: time 14 day.

Data set [10] deals with Mus musculus. Nature of the data set: Anti-inflammatory activity against MOG35-55-induced experimental autoimmune encephalomyelitis C57BL/6 mouse model assessed as fold change in CXCL10 gene expression in brain at 0.15 mg/kg/day, ig for 14 days starting from 12th day of immunization by RT-qPCR analysis relative to control. The data set is classed as functional. The following applies: time 14 day.

Data set [11] deals with Mus musculus. The data set can be described thus: Anti-inflammatory activity against MOG35-55-induced experimental autoimmune encephalomyelitis C57BL/6 mouse model assessed as fold change in TNF-alpha gene expression in brain at 0.15 mg/kg/day, ig for 14 days starting from 12th day of immunization by RT-qPCR analysis relative to control. The data set is classed as functional. The following applies: time 14 day.

Data set [12] relates to Mus musculus. Nature of the data set: Anti-inflammatory activity against MOG35-55-induced experimental autoimmune encephalomyelitis C57BL/6 mouse model assessed as proportion of brain infiltrating cells expressing CD45+/CD11b/c high surface markers at […]/day, ig for 14 days starting from 12th day of immunization by flow cytometry (reference value: 87.7%). The following applies: time 14 day. The format is functional.

Data set [13] has as its system Mus musculus. The data set can be described thus: Anti-inflammatory activity against MOG35-55-induced experimental autoimmune encephalomyelitis C57BL/6 mouse model assessed as fold change in CXCL9 gene expression in brain at 0.15 mg/kg/day, ig for 14 days starting from 12th day of immunization by RT-qPCR analysis relative to control. The format is functional. The following applies: time 14 day.

The test system of data set [14] is Mus musculus. Nature of the data set: Anti-inflammatory activity against MOG35-55-induced experimental autoimmune encephalomyelitis C57BL/6 mouse model assessed as fold change in BCL2 gene expression in brain at 0.3 mg/kg/day, ig for 14 days starting from 12th day of immunization by RT-qPCR analysis relative to control. The format is functional. The following applies: time 14 day.

The test system of data set [15] is Mus musculus. The data set can be described thus: Anti-inflammatory activity against MOG35-55-induced experimental autoimmune encephalomyelitis C57BL/6 mouse model assessed as methylation of CpG sites of SOCS5 gene promoter in brain at […], ig for 14 days starting from 12th day of immunization by PCR analysis (reference value: 10.6 +/-4%). The format is functional. Conditions: time 14 day.

For data set [16], the system named is Mus musculus. The data set can be described thus: Anti-inflammatory activity against MOG35-55-induced experimental autoimmune encephalomyelitis C57BL/6 mouse model assessed as fold change in HIF1A gene expression in brain at 0.3 mg/kg/day, ig for 14 days starting from 12th day of immunization by RT-qPCR analysis relative to control. The data set is classed as functional. The following applies: time 14 day.

Data set [17] deals with Mus musculus. Nature of the data set: Anti-inflammatory activity against MOG35-55-induced experimental autoimmune encephalomyelitis C57BL/6 mouse model assessed as fold change in CD4 gene expression in brain at 0.15 mg/kg/day, ig for 14 days starting from 12th day of immunization by RT-qPCR analysis relative to control. The following applies: time 14 day. The format is functional.

The subject of data set [18] is Mus musculus. Nature of the data set: Anti-inflammatory activity against MOG35-55-induced experimental autoimmune encephalomyelitis C57BL/6 mouse model assessed as fold change in TGFB1 gene expression in brain at 0.3 mg/kg/day, ig for 14 days starting from 12th day of immunization by RT-qPCR analysis relative to control. The format is functional. The following applies: time 14 day.

For data set [19], the system named is Mus musculus. Nature of the data set: Anti-inflammatory activity against MOG35-55-induced experimental autoimmune encephalomyelitis C57BL/6 mouse model assessed as fold change in NFKB gene expression in brain at 0.3 mg/kg/day, ig for 14 days starting from 12th day of immunization by RT-qPCR analysis relative to control. The data set is classed as functional. The following applies: time 14 day.

Data set [20] deals with Mus musculus. Nature of the data set: Anti-inflammatory activity against MOG35-55-induced experimental autoimmune encephalomyelitis C57BL/6 mouse model assessed as fold change in C1S gene expression in brain at 0.15 mg/kg/day, ig for 14 days starting from 12th day of immunization by RT-qPCR analysis relative to control. Conditions: time 14 day. The format is functional.

Data set [21] deals with Mus musculus. Nature of the data set: Anti-inflammatory activity against MOG35-55-induced experimental autoimmune encephalomyelitis C57BL/6 mouse model assessed as fold change in GFAP gene expression in brain at 0.3 mg/kg/day, ig for 14 days starting from 12th day of immunization by RT-qPCR analysis relative to control. The format is functional. Conditions: time 14 day.

For data set [22], the system named is Mus musculus. The data set can be described thus: Anti-inflammatory activity against MOG35-55-induced experimental autoimmune encephalomyelitis C57BL/6 mouse model assessed as fold change in C1S gene expression in brain at 0.3 mg/kg/day, ig for 14 days starting from 12th day of immunization by RT-qPCR analysis relative to control. The format is functional. The following applies: time 14 day.

The subject of data set [23] is Mus musculus. Nature of the data set: Anti-inflammatory activity against MOG35-55-induced experimental autoimmune encephalomyelitis C57BL/6 mouse model assessed as reduction in serum monokines level by measuring reduction in IL-1B level at 0.3 mg/kg/day, ig for 14 days starting from 12th day of immunization by ELISA. The following applies: time 14.0 day. The format is functional, organism-based.

With `CCCCCCCCCCCCCCCCCCCCCCCCC(=O)O[C@H]1CC[C@]2(C)[C@H]3CC=C4[C@@H]5CC(C)(C)CC[C@]5(CO)CC[C@@]4(C)[C@]3(C)CC[C@H]2C1(C)C`, in data set [1], the Stability entry was “Stable”. Moreover, the “fold change (FC)” value in data set [2] came to 2.69; in data set [5], 2; in [6] it was 1.46. The outcome in data set [3] and in data set [4] was Active.

Take `CCCCCCCCc1ccc(CCC(N)(CO)CO)cc1` [FINGOLIMOD]: the outcome in [7] and in data set [23] was Active. The “fold change (FC)” value worked out at 1.87 in data set [8]; 4.46 in [9]; 5.21 in data set [10]; 2.21 in data set [11]; 2.86 in [13]; 2.12 in [14]. Also, the “fold change (FC)” value in [16] was determined as 1.86; in data set [17], 3.06; in [18], 10.7; in data set [19] it was 1.98; in data set [20] it was 1.91; in [21], 1.92. In [22], the “fold change (FC)” value is 2.12. Moreover, the Activity in data set [12] turned out to be 46.6%; in data set [15], 8.8%.
